Where two headings read alike, the source gives them in different places. Marks after values point to notes of the source that are not given here.
How the values were obtained:
[1] = tested on: fecal samples from breast-fed infants (intestinal flora); test: Anaerobic fermentation of HMOs with fecal inocula of breast-fed infants, agmatine in supernatant by GC/MS and LC/MS/MS; assay type: cell-based, human; settings: for Increase of agmatine, HMO/blank (relative ratio of agmatine compared to the blank): breast fed infants, fermentation culture 37° C.
Protocol: (§1) Fecal samples from eight human babies, one group of four breast-fed and the other group of four formula-fed, were used as inocula for anaerobic fermentation (37° C.) of lacto-N-neotetraose (LNnT) and 2′-fucosyllactose. Supernatants from the fermentation cultures were sampled at 0 hr, 3 hr, and 6 hr. A culture without addition of HMOs served as a control. A sample of the fermentation medium (blank), which constituted approximately 90% of the starting culture volume, was also analyzed.
(§2) Samples were extracted and split into equal parts for analysis on GC/MS and LC/MS/MS platforms. Agmatine ions were identified in chromatograms, and peak area was integrated for quantitative analysis.

[2] = tested on: fecal samples from formula-fed infants (intestinal flora); test: Anaerobic fermentation of HMOs with fecal inocula of formula-fed infants, agmatine in supernatant by GC/MS and LC/MS/MS; assay type: cell-based, human; settings: for Increase of agmatine, HMO/blank (relative ratio of agmatine compared to the blank): formula fed infants, fermentation culture 37° C.
Protocol: as §1, §2

[3] = mice, peripheral injection at 50 and 300 mg/kg; cited from earlier work
[4] = non-human primates, peripheral injection at 50 and 300 mg/kg; cited from earlier work
[5] = tested on: NMDA subclass of glutamate receptors; settings: cited from earlier work
[6] = tested on: nitric oxide synthase (NOS), all isoforms; settings: cited from earlier work

Structure (SMILES)	Increase of agmatine, HMO/blank (relative ratio of agmatine compared to the blank) ([1]; 0 h)	Increase of agmatine, HMO/blank (relative ratio of agmatine compared to the blank) ([1]; 3 h)	Increase of agmatine, HMO/blank (relative ratio of agmatine compared to the blank) ([1]; 6 h)	agmatine relative to a blank (in words) ([1]; fecal samples from breast-fed infants (BF))	agmatine relative to a blank (in words) ([2]; fecal samples from formula-fed infants (FF))	Increase of agmatine, HMO/blank (relative ratio of agmatine compared to the blank) ([2]; 0 h)	Increase of agmatine, HMO/blank (relative ratio of agmatine compared to the blank) ([2]; 3 h)	Increase of agmatine, HMO/blank (relative ratio of agmatine compared to the blank) ([2]; 6 h)	brain agmatine concentrations [3]	brain agmatine concentrations [4]	affinity for the NMDA subclass of glutamate receptors [5]	inhibition of NOS isoforms [6]	nitric oxide production [6]
CC(=O)N[C@H]1[C@H](O[C@H]2[C@@H](O)[C@@H](CO)O[C@@H](O[C@H]3[C@H](O)[C@@H](O)C(O)O[C@@H]3CO)[C@@H]2O)O[C@H](CO)[C@@H](O[C@@H]2O[C@H](CO)[C@H](O)[C@H](O)[C@H]2O)[C@@H]1O (mixture of isomers) [LNnT, lacto-N-neotetraose]	9.52^a	34.4	1.59	dramatic increases in agmatine	dramatic increases in agmatine	2.12	61.77^a	75.02^a					
N=C(N)NCCCCN [agmatine]									significant increases in brain agmatine concentrations	significant increases in brain agmatine concentrations	modest affinity	inhibit all isoforms of NOS	suppress nitric oxide production
